According to patent US11753446B2, “Beta-hairpin peptidomimetics” (POLYPHOR AG, priority 2014, dated 2023):
Where a SMILES comes first, the peptide text is derived from it. Bridges are numbered along the chain shown (N, C = ends). [ ]: non-standard residue; d: D form. Tle = CC(C)(C)[C@H](N)C(=O)O; dDab = NCC[C@@H](N)C(=O)O; NMeA = CN[C@@H](C)C(=O)O; Orn = NCCC[C@H](N)C(=O)O; Dab = NCC[C@H](N)C(=O)O; Dap = NC[C@H](N)C(=O)O

Legend:
[1] = tested on: human red blood cells (hRBC); assay: Hemolysis: hemolytic activity at 100 μg/mL, 1 h at 37° C.; settings: red cells of human, 1 h
How it was run: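 Peptides at 100 μg/mL incubated with washed 20% (v/v) human erythrocytes (~0.9×10^9 cells/mL) for 1 h at 37 °C with shaking. Released hemoglobin read at OD 540 nm in supernatant; 0% and 100% lysis from PBS/0.001% acetic acid and 2.5% Triton X-100.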

[2] = tested on: Escherichia coli ATCC 25922; type: cell-based; settings: ATCC 25922
How it was run: (§1)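 Peptide MICs were determined by NCCLS broth microdilution in cation-adjusted Mueller-Hinton II broth. Inoculum was about 10^6 CFU/mL, matched to 0.5 McFarland, with peptides in two-fold serial dilutions. The broth contained Polysorbate 80 at 0.002% final concentration.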

[3] = tested on: Klebsiella pneumoniae ATCC 13883; type: cell-based; settings: ATCC 13883
How it was run: as §1

[4] = tested on: Acinetobacter baumannii DSM 30008; type: cell-based; settings: DSM 30008
How it was run: as §1

Escherichia coli ATCC 25922 MIC [2]	Klebsiella pneumoniae ATCC 13883 MIC [3]	Acinetobacter baumannii DSM 30008 MIC [4]	SMILES	Hemolysis at 100 μg/mL [1]; 100	Hemolysis at 100 μg/mL ([1]; 100 μg/mL)
2 µg/mL	1 µg/mL	2 µg/mL	CC(C)C[C@@H]1NC(=O)[C@@H]2CCCN2C(=O)[C@@H](CCN)NC(=O)[C@H](CO)NC(=O)[C@H](C(C)C)NC(=O)[C@H](C(C)(C)C)NC(=O)[C@@H]2CC(=O)NCC[C@H](NC(=O)[C@H](Cc3ccc(O)cc3)NC(=O)[C@H](Cc3ccc(O)cc3)NC1=O)C(=O)N[C@@H](CCCN)C(=O)N[C@H](CCN)C(=O)N[C@@H](CCN)C(=O)N[C@@H](Cc1c[nH]c3ccccc13)C(=O)N2 [Example 41, cyclo(-Leu-Tyr-Tyr-Dab-Orn-^DDab-Dab-Trp-Asp-tBuGly-Val-Ser-^DDab-Pro-)] (cyclo(D[Tle]VS[dDab]PLYY[Dab][Orn][dDab][Dab]W); lactam 1-10)	2%	
1 µg/mL	0.5 µg/mL	2 µg/mL	CC(C)[C@@H]1NC(=O)[C@H](C)N(C)C(=O)[C@H]2CCCN2C(=O)[C@H](CO)NC(=O)[C@H](C)NC(=O)[C@H](C(C)(C)C)NC(=O)[C@H](CCN)NC(=O)[C@H](Cc2c[nH]c3ccccc23)NC(=O)[C@H](CCN)NC(=O)[C@@H](CCN)NC(=O)[C@H](CN)NC(=O)[C@H](CCN)NC(=O)[C@H](Cc2ccc(O)cc2)NC(=O)[C@H](CO)NC1=O [Example 44, cyclo(-Val-Ser-Tyr-Dab-Dap-^DDab-Dab-Trp-Dab-tBuGly-Ala-Ser-^DPro-NMeAla-)] (cyclo(AS[dP][NMeA]VSY[Dab][Dap][dDab][Dab]W[Dab][Tle]))	1%	
0.5 µg/mL	0.25 µg/mL	1 µg/mL	CC(C)[C@@H]1NC(=O)[C@@H]2CCCN2C(=O)[C@@H](C)NC(=O)[C@H]([C@@H](C)O)NC(=O)[C@H](CO)NC(=O)[C@H](C(C)(C)C)NC(=O)[C@H](CCN)NC(=O)[C@H](Cc2c[nH]c3ccccc23)NC(=O)[C@H](CCN)NC(=O)[C@@H](CCN)NC(=O)[C@H](CN)NC(=O)[C@H](CCN)NC(=O)[C@H](Cc2ccc(O)cc2)NC(=O)[C@H](CN)NC1=O [Example 45, cyclo(-Val-Dap-Tyr-Dab-Dap-^DDab-Dab-Trp-Dab-tBuGly-Ser-Thr-^DAla-Pro-)] (cyclo([Dab][Dap][dDab][Dab]W[Dab][Tle]ST[dA]PV[Dap]Y))	4%	
1 µg/mL	0.5 µg/mL	1 µg/mL	CC(C)[C@@H]1NC(=O)[C@@H]2CCCN2C(=O)[C@@H](C)NC(=O)[C@H]([C@@H](C)O)NC(=O)[C@H](CO)NC(=O)[C@H](C(C)(C)C)NC(=O)[C@H](CCN)NC(=O)[C@H](Cc2c[nH]c3ccccc23)NC(=O)[C@H](CCN)NC(=O)[C@@H](CCN)NC(=O)[C@H](CCN)NC(=O)[C@H](CCN)NC(=O)[C@H](Cc2ccc(O)cc2)NC(=O)[C@H](CN)NC1=O [Example 46, cyclo(-Val-Dap-Tyr-Dab-Dab-^DDab-Dab-Trp-Dab-tBuGly-Ser-Thr-^DAla-Pro-)] (cyclo([Dab][Dab][dDab][Dab]W[Dab][Tle]ST[dA]PV[Dap]Y))	0%	
1 µg/mL	1 µg/mL	4 µg/mL	CC[C@H](C)[C@@H]1NC(=O)[C@H](Cc2ccc(O)cc2)NC(=O)[C@H]2CCCN2C(=O)[C@H](CO)NC(=O)[C@H](C)NC(=O)[C@H](C(C)(C)C)NC(=O)[C@H](CCN)NC(=O)[C@H](Cc2c[nH]c3ccccc23)NC(=O)[C@H](CCN)NC(=O)[C@@H](CCN)NC(=O)[C@H](CCCN)NC(=O)[C@H](CCN)NC(=O)[C@H](Cc2ccc(O)cc2)NC(=O)[C@H]([C@@H](C)O)NC1=O [Example 47, cyclo(-Ile-Thr-Tyr-Dab-Orn-^DDab-Dab-Trp-Dab-tBuGly-Ala-Ser-^DPro-Tyr-)] (HELM PEPTIDE1{A.S.[dP].Y.I.T.Y.[Dab].[Orn].[NCC[C@@H](N[*:1])C(=O)[*:2]].[Dab].W.[Dab].[CC(C)(C)[C@H](N[*:1])C(=O)[*:2]]}$PEPTIDE1,PEPTIDE1,1:R1-14:R2$$$V2.0)	0%	
1 µg/mL	2 µg/mL	8 µg/mL	CC[C@H](C)[C@@H]1NC(=O)[C@@H]2CCCN2C(=O)[C@@H](CCN)NC(=O)[C@H](CO)NC(=O)[C@H](C)NC(=O)[C@H](C(C)(C)C)NC(=O)[C@H](CCN)NC(=O)[C@H](Cc2c[nH]c3ccccc23)NC(=O)[C@H](CCN)NC(=O)[C@@H](CCN)NC(=O)[C@H](CCCN)NC(=O)[C@H](CCN)NC(=O)[C@H](Cc2ccc(O)cc2)NC(=O)[C@H]([C@@H](C)O)NC1=O [Example 48, cyclo(-Ile-Thr-Tyr-Dab-Orn-^DDab-Dab-Trp-Dab-tBuGly-Ala-Ser-^DDab-Pro-)] (cyclo(AS[dDab]PITY[Dab][Orn][dDab][Dab]W[Dab][Tle]))	1%	
2 µg/mL	2 µg/mL	4 µg/mL	CC[C@H](C)[C@@H]1NC(=O)[C@H](Cc2ccc(O)cc2)NC(=O)[C@@H](C)NC(=O)[C@H](CO)NC(=O)[C@H](C)NC(=O)[C@H](C(C)(C)C)NC(=O)[C@H](CCN)NC(=O)[C@H](Cc2c[nH]c3ccccc23)NC(=O)[C@H](CCN)NC(=O)[C@@H](CCN)NC(=O)[C@H](CCCN)NC(=O)[C@H](CCN)NC(=O)[C@H](Cc2ccc(O)cc2)NC(=O)[C@H]([C@@H](C)O)NC1=O [Example 49, cyclo(-Ile-Thr-Tyr-Dab-Orn-^DDab-Dab-Trp-Dab-tBuGly-Ala-Ser-^DAla-Tyr-)] (HELM PEPTIDE1{A.S.[dA].Y.I.T.Y.[Dab].[Orn].[NCC[C@@H](N[*:1])C(=O)[*:2]].[Dab].W.[Dab].[CC(C)(C)[C@H](N[*:1])C(=O)[*:2]]}$PEPTIDE1,PEPTIDE1,1:R1-14:R2$$$V2.0)	2%	

SMILES	Escherichia coli ATCC 25922 MIC [2]	Klebsiella pneumoniae ATCC 13883 MIC [3]	Acinetobacter baumannii DSM 30008 MIC [4]	Hemolysis at 100 μg/mL [1]; 100	Hemolysis at 100 μg/mL ([1]; 100 μg/mL)
CC(C)C[C@@H]1NC(=O)[C@H](CCCNC(=N)N)NC(=O)[C@@H](CCN)NC(=O)[C@H](C(C)C)NC(=O)[C@H](CO)NC(=O)[C@H](C(C)C)NC(=O)[C@@H]2CSSC[C@H](NC(=O)[C@H](Cc3ccc(O)cc3)NC(=O)[C@H](CO)NC1=O)C(=O)N[C@@H](CCCN)C(=O)N[C@H](CCN)C(=O)N[C@@H](CCN)C(=O)N[C@@H](Cc1ccccc1)C(=O)N2 [Example 39, cyclo(-Leu-Ser-Tyr-Cys-Orn-^DDab-Dab-Phe-Cys-Val-Ser-Val-^DDab-Arg-)] (HELM PEPTIDE1{C.[Orn].[NCC[C@@H](N[*:1])C(=O)[*:2]].[Dab].F.C.V.S.V.[NCC[C@@H](N[*:1])C(=O)[*:2]].R.L.S.Y}$PEPTIDE1,PEPTIDE1,1:R3-6:R3|PEPTIDE1,PEPTIDE1,1:R1-14:R2$$$V2.0)	0.5 µg/mL	0.25 µg/mL	0.5 µg/mL	4.5%	
CC(C)C[C@@H]1NC(=O)[C@H](CCCNC(=N)N)NC(=O)[C@@H](CCN)NC(=O)[C@H](C(C)C)NC(=O)[C@H](C)NC(=O)[C@H](C(C)C)NC(=O)[C@@H]2CSSC[C@H](NC(=O)[C@H](Cc3ccc(O)cc3)NC(=O)[C@H](CO)NC1=O)C(=O)N[C@@H](CCCN)C(=O)NCC(=O)N[C@@H](CCN)C(=O)N[C@@H](Cc1c[nH]c3ccccc13)C(=O)N2 [Example 40, cyclo(-Leu-Ser-Tyr-Cys-Orn-Gly-Dab-Trp-Cys-Val-Ala-Val-^DDab-Arg-)] (HELM PEPTIDE1{A.V.[NCC[C@@H](N[*:1])C(=O)[*:2]].R.L.S.Y.C.[Orn].G.[Dab].W.C.V}$PEPTIDE1,PEPTIDE1,8:R3-13:R3|PEPTIDE1,PEPTIDE1,1:R1-14:R2$$$V2.0)	4 µg/mL	2 µg/mL	4 µg/mL	4%	
CC(C)C[C@@H]1NC(=O)[C@H](CCCNC(=N)N)NC(=O)[C@H]2CCCN2C(=O)[C@H](C(C)C)NC(=O)[C@@H]2CSSC[C@H](NC1=O)C(=O)N[C@@H](Cc1ccc(O)cc1)C(=O)N[C@H]1CSSC[C@H](NC(=O)[C@H](Cc3c[nH]c4ccccc34)NC(=O)[C@H](CCN)NC(=O)[C@H](CCN)NC(=O)[C@H](CCN)NC1=O)C(=O)N[C@@H](Cc1ccc(O)cc1)C(=O)N2 [Example 42, cyclo(-Leu-Cys-Tyr-Cys-Dab-Dab-Dab-Trp-Cys-Tyr-Cys-Val-^DPro-Arg-)] (HELM PEPTIDE1{C.[Dab].[Dab].[Dab].W.C.Y.C.V.[dP].R.L.C.Y}$PEPTIDE1,PEPTIDE1,1:R3-6:R3|PEPTIDE1,PEPTIDE1,8:R3-13:R3|PEPTIDE1,PEPTIDE1,1:R1-14:R2$$$V2.0)	4 µg/mL	2 µg/mL	1 µg/mL		3%
CC(C)C[C@@H]1NC(=O)[C@H](CCCNC(=N)N)NC(=O)[C@H]2CCCN2C(=O)[C@H](C(C)C)NC(=O)[C@@H]2CSSC[C@H](NC1=O)C(=O)N[C@@H](Cc1ccc(O)cc1)C(=O)N[C@H]1CSSC[C@H](NC(=O)[C@H](Cc3c[nH]c4ccccc34)NC(=O)[C@H](CCN)NC(=O)[C@@H](CCN)NC(=O)[C@H](CCN)NC1=O)C(=O)N[C@@H](Cc1ccc(O)cc1)C(=O)N2 [Example 43, cyclo(-Leu-Cys-Tyr-Cys-Dab-^DDab-Dab-Trp-Cys-Tyr-Cys-Val-^DPro-Arg-)] (HELM PEPTIDE1{C.[Dab].[NCC[C@@H](N[*:1])C(=O)[*:2]].[Dab].W.C.Y.C.V.[dP].R.L.C.Y}$PEPTIDE1,PEPTIDE1,1:R3-6:R3|PEPTIDE1,PEPTIDE1,8:R3-13:R3|PEPTIDE1,PEPTIDE1,1:R1-14:R2$$$V2.0)	4 µg/mL	2 µg/mL	1 µg/mL		2%
